These results are taken from patent publication US9758524B2, “4-imidazopyridazin-1-yl-benzamides as Btk inhibitors” (Merck Sharp & Dohme B.V., priority 2011, dated 2017).

Each structure is given as a SMILES string. Like-named read-outs stand apart in the source and are kept apart here. Bounds are passed on as bounds.

One experiment deals with Src enzyme (Homo sapiens (Human), UniProt P12931). The experiment is described as follows: Src enzyme activity (IMAP fluorescence polarization assay). To be noted: read-out: EC50 Src activity values; IMAP, 60 min pre-incubation, 4 μM ATP. On the technique in general: Polarisation of emitted light reports the rotation of a fluorescent probe.
Chain of Src enzyme (P12931 whole entry, looked up): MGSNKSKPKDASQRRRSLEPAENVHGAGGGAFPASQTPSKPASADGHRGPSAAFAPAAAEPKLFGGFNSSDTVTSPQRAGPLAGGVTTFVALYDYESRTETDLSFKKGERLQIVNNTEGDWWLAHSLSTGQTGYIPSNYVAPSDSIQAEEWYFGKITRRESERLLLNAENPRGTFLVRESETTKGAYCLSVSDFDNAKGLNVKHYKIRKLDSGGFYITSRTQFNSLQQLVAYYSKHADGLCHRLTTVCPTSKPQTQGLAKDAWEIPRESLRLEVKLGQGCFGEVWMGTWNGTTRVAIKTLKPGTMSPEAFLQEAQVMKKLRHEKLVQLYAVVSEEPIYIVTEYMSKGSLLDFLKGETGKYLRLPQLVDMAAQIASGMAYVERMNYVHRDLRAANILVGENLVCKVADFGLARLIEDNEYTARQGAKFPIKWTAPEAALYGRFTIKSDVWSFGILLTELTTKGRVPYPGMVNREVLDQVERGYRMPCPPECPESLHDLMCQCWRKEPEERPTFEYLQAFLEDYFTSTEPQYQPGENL
A further experiment addresses Btk enzyme (His-Btk) (Homo sapiens (Human), UniProt Q06187). The experiment is described as follows: Btk enzyme activity (IMAP fluorescence polarization assay).
Another experiment concerns the target Lck enzyme (Homo sapiens (Human), UniProt P06239). The experiment is described as follows: Lck enzyme activity (IMAP fluorescence polarization assay).
The target in a further experiment is FynT enzyme (Homo sapiens (Human), UniProt P06241). In words: FynT enzyme activity (IMAP fluorescence polarization assay). It is filed as biochemical. To be noted: 60 min pre-incubation, 0.2 μM ATP. As for the experimental part:
FynT enzyme activity is measured using the IMAP (immobilized metal ion affinity-based fluorescence polarization) assay as outlined below.
Test compounds and FynT enzyme are pre-incubated 60 minutes at room temperature, before adding 5 μL/well of 400 nM Fluorescin labeled substrate peptide (p34cdc2 substrate peptide, e.g. #R7157/#R7172, Molecular Devices) in KR-buffer. Final peptide substrate concentration in assay is 100 nM. […] Following incubation for 2 h at room temperature the enzyme reaction is stopped by adding 40 μL/well IMAP Progressive Binding Solution (according to suppliers (Molecular Devices) protocol using 75% 1× buffer A and 25% 1× buffer B with 1:600 Progressive Binding Solution). After 60 min incubation at room temperature in the dark the FP signal is read. […] Values are calculated as percentage of the difference in readout (ΔmPi) of the controls with and without ATP. EC50 values are determined by curve fitting of the experimental results using Activity Base.

A further experiment has as its target Lyn enzyme (Homo sapiens (Human), UniProt P07948). The experiment is described as follows: Lyn enzyme activity (IMAP fluorescence polarization assay).
Where [1] appears, read: read-out: EC50 Btk activity values, IMAP, 60 min pre-incubation, 5 μM ATP, bin bound in nM.
Where [2] appears, read: IMAP, 60 min pre-incubation, 6 μM ATP, bin bound in μM.
The mark [3] stands for this setting: read-out: EC50 Lck activity values, IMAP, 60 min pre-incubation, 6 μM ATP, bin bound in μM.
The mark [4] stands for this setting: read-out: EC50 Lyn activity values, 60 min pre-incubation, 2 μM ATP, bin bound in μM.
Where [5] appears, read: IMAP, 60 min pre-incubation, 5 μM ATP, bin bound in nM.

Chain of Lck enzyme (P06239 whole entry): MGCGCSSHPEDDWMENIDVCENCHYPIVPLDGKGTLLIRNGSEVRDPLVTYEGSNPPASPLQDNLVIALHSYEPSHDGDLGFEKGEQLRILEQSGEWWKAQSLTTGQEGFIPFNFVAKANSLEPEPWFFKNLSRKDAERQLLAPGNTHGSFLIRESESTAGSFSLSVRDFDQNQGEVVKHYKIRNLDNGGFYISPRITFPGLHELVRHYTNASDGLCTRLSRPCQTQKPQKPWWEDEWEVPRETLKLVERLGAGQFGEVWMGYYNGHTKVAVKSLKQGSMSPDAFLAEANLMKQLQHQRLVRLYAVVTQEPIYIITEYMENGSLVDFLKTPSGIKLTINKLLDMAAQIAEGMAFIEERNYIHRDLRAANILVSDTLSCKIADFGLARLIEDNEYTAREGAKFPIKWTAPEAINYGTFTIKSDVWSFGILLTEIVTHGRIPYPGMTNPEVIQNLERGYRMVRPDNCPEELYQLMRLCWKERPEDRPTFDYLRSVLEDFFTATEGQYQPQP
Chain of Btk enzyme (His-Btk) (Q06187 whole entry): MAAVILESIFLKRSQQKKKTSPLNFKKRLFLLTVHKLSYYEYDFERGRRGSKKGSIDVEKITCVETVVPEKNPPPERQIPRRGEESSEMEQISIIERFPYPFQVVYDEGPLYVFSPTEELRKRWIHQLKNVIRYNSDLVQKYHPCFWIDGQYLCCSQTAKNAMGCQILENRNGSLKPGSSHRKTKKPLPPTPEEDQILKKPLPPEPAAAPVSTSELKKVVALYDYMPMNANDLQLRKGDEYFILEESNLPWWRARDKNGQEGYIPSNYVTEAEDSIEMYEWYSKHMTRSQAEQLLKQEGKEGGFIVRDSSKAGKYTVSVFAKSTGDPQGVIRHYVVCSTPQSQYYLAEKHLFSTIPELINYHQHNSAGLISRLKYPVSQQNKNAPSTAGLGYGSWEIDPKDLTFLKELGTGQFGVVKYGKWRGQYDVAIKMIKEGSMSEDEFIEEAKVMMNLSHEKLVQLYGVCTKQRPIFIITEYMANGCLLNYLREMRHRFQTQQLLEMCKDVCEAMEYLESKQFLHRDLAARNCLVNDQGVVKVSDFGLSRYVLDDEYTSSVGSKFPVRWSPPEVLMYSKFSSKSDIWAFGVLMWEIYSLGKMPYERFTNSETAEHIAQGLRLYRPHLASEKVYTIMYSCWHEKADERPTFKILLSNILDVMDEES
Chain of FynT enzyme (P06241 other isoform, or with tags, fused parts or gaps): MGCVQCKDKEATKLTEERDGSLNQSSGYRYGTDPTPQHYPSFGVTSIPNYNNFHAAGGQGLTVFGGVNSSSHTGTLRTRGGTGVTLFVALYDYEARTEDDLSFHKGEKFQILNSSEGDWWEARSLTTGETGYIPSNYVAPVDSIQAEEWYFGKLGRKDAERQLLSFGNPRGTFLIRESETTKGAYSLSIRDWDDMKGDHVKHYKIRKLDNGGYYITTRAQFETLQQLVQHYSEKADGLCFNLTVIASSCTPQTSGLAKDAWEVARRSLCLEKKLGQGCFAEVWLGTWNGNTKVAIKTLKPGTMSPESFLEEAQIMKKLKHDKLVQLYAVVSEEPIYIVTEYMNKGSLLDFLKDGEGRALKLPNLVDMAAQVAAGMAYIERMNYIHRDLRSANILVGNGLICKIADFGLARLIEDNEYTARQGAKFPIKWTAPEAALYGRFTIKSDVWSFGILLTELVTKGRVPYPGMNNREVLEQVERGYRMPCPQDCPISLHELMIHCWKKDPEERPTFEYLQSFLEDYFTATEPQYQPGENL
Chain of Lyn enzyme (P07948 whole entry): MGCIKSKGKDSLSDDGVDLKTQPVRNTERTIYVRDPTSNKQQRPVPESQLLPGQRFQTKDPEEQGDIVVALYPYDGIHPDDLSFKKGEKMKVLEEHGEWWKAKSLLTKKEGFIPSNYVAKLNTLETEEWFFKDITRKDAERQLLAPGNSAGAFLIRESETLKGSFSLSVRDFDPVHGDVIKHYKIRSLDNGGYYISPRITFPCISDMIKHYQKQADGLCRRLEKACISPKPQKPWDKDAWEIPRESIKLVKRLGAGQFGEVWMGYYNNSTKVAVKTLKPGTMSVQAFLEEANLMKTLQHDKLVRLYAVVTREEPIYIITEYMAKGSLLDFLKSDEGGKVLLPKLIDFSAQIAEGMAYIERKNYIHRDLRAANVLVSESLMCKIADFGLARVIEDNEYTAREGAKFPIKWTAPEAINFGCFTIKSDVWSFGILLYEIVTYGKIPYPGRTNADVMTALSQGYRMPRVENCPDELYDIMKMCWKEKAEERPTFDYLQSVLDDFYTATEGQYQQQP

Take `C=CC(=O)N1CCC[C@H]1c1nc(-c2ccc(C(=O)Nc3cc(CC)ccn3)cc2)c2c(N)nccn12` [Example 126, (S)-4-(3-(1-acryloylpyrrolidin-2-yl)-8-aminoimidazo[1,5-a]pyrazin-1-yl)-N-(4-ethylpyridin-2-yl)benzamide]: the EC50 at Src enzyme is not below 1 µM; at Btk enzyme (His-Btk) (setting [1]), less than 10 nM; at Lck enzyme it was 0.1 to 1 µM; on FynT enzyme, not below 1 µM; on Lyn enzyme (EC50 Lyn activity values, 60 min pre-incubation, 2 μM ATP, bin bound in nM), 100 to 1000 nM. Further, on Lck enzyme (setting [2]), the “EC50 Lck activity values” was less than 1 µM. For the same compound, at Lyn enzyme (60 min pre-incubation, 2 μM ATP, bin bound in μM), the “EC50 Lyn activity values” was less than 1 µM.

As to `Cc1ccnc(NC(=O)c2ccc(-c3nc([C@@H]4CCCN4C(=O)c4ccnc(Cl)n4)n4ccnc(N)c34)cc2)c1` [Example 129, (S)-4-(8-amino-3-(1-(2-chloropyrimidine-4-carbonyl)pyrrolidin-2-yl)imidazo[1,5-a]pyrazin-1-yl)-N-(4-methylpyridin-2-yl)benzamide], the half-maximal effective concentration (EC50) on Src enzyme was not below 1 µM; on Btk enzyme (His-Btk) (setting [1]) it was less than 10 nM; on Lck enzyme (setting [3]) it was not below 1 µM; at FynT enzyme, not below 1 µM; at Lyn enzyme (setting [4]), not below 1000 nM.

`CC#CC(=O)N1CCC[C@H]1c1nc(-c2ccc(C(=O)Nc3cc(CC)ccn3)cc2)c2c(N)nccn12` [Example 131, (S)-4-(8-amino-3-(1-but-2-ynoylpyrrolidin-2-yl)imidazo[1,5-a]pyrazin-1-yl)-N-(4-ethylpyridin-2-yl)benzamide]: the 50% effective concentration (EC50) on Src enzyme was not below 1 µM; on Btk enzyme (His-Btk) (setting [1]) it was less than 10 nM; on Lck enzyme (setting [3]), not below 1 µM; at FynT enzyme it was not below 1 µM; on Lyn enzyme (setting [4]), not below 1000 nM.

For `C=CC(=O)N1CCC[C@H]1c1nc(-c2ccc(C(=O)Nc3ccccn3)c(OC)c2)c2c(N)nccn12` [Example 14, (S)-4-(3-(1-Acryloylpyrrolidin-2-yl)-8-aminoimidazo[1,5-a]pyrazin-1-yl)-2-methoxy-N-(pyridin-2-yl)benzamide], the 50% effective concentration (EC50) on Src enzyme was not below 1 µM; at Btk enzyme (His-Btk) (setting [1]) it was less than 10 nM; at Lck enzyme (setting [3]) it was not below 1 µM; at FynT enzyme, not below 1 µM; at Lyn enzyme (setting [4]), not below 1000 nM.

In the case of `C=CC(=O)N1CCC[C@H]1c1nc(-c2ccc(C(=O)Nc3cc(N4CCCC4)ccn3)cc2)c2c(N)nccn12` [Example 43, (S)-4-(3-(1-acryloylpyrrolidin-2-yl)-8-aminoimidazo[1,5-a]pyrazin-1-yl)-N-(4-(pyrrolidin-1-yl)pyridin-2-yl)benzamide], the EC50 at Src enzyme was not below 1 µM; on Btk enzyme (His-Btk) (setting [1]) it was less than 10 nM; on Lck enzyme (setting [3]) it was not below 1 µM; on FynT enzyme, not below 1 µM; at Lyn enzyme (setting [4]) it was not below 1000 nM.

For `CN(C)C/C=C/C(=O)N1CCC[C@H]1c1nc(-c2ccc(C(=O)Nc3nccs3)cc2)c2c(N)nccn12` [Example 15, (S,E)-4-(8-Amino-3-(1-(4-(dimethylamino)but-2-enoyl)pyrrolidin-2-yl)imidazo[1,5-a]pyrazin-1-yl)-N-(thiazol-2-yl)benzamide], the half-maximal effective concentration (EC50) on Src enzyme was not below 1 µM; at Btk enzyme (His-Btk) (setting [1]), less than 10 nM; on Lck enzyme (setting [3]) it was not below 1 µM; at FynT enzyme, not below 1 µM; at Lyn enzyme (setting [4]) it was not below 1000 nM.

With `COC/C=C/C(=O)N1CCC[C@H]1c1nc(-c2ccc(C(=O)Nc3ccccn3)c(OC)c2)c2c(N)nccn12` [Example 103, (S,E)-4-(8-amino-3-(1-(4-methoxybut-2-enoyl)pyrrolidin-2-yl)imidazo[1,5-a]pyrazin-1-yl)-2-methoxy-N-(pyridin-2-yl)benzamide], the concentration giving a half-maximal response (EC50) at Src enzyme was not below 1 µM; at Btk enzyme (His-Btk), 10 to 100 nM; on Lck enzyme (setting [3]), not below 1 µM; at FynT enzyme it was not below 1 µM; on Lyn enzyme (setting [4]), not below 1000 nM. Moreover, the “EC50 Btk activity values” on Btk enzyme (His-Btk) (setting [5]) is reported as less than 100 nM.

For the compound `CCCc1ccnc(NC(=O)c2ccc(-c3nc([C@@H]4CCCN4C(=O)c4ccnc(Cl)n4)n4ccnc(N)c34)cc2)c1` [Example 79, (S)-4-(8-amino-3-(1-(2-chloropyrimidine-4-carbonyl)pyrrolidin-2-yl)imidazo[1,5-a]pyrazin-1-yl)-N-(4-propylpyridin-2-yl)benzamide], the EC50 at Src enzyme is not below 1 µM; at Btk enzyme (His-Btk) (setting [1]), less than 10 nM; on Lck enzyme (setting [3]), not below 1 µM; at FynT enzyme, not below 1 µM; at Lyn enzyme (setting [4]), not below 1000 nM.

In the case of `C=C(C(=O)N1CCC[C@H]1c1nc(-c2ccc(C(=O)Nc3ccccn3)cc2)c2c(N)nccn12)C(F)(F)F` [Example 92, (S)-4-(8-amino-3-(1-(2-(trifluoromethyl)acryloyl)pyrrolidin-2-yl)imidazo[1,5-a]pyrazin-1-yl)-N-(pyridin-2-yl)benzamide], the EC50 on Src enzyme is not below 1 µM; on Btk enzyme (His-Btk) it was 100 to 1000 nM; on Lck enzyme (setting [3]), not below 1 µM; at FynT enzyme it was not below 1 µM; at Lyn enzyme (setting [4]), not below 1000 nM. Also, at Btk enzyme (His-Btk) (IMAP, 60 min pre-incubation, 5 μM ATP, bin bound in μM), the “EC50 Btk activity values” was less than 1000 nM.

On to `CN(C)C/C=C/C(=O)N1CCCC[C@H]1c1nc(-c2ccc(C(=O)Nc3cccnn3)cc2)c2c(N)nccn12` [Example 73, (S,E)-4-(8-amino-3-(1-(4-(dimethylamino)but-2-enoyl)piperidin-2-yl)imidazo[1,5-a]pyrazin-1-yl)-N-(pyridazin-3-yl)benzamide], for which the 50% effective concentration (EC50) on Src enzyme was not below 1 µM; on Btk enzyme (His-Btk), 10 to 100 nM; on Lck enzyme (setting [3]), not below 1 µM; on FynT enzyme, not below 1 µM; on Lyn enzyme (setting [4]) it was not below 1000 nM. Besides, the “EC50 Btk activity values” on Btk enzyme (His-Btk) (setting [5]) was less than 100 nM.

Consider `COC/C=C/C(=O)N1CCC[C@H]1c1nc(-c2ccc(C(=O)Nc3cc(C#N)ccn3)cc2)c2c(N)nccn12` [Example 98, (S,E)-4-(8-amino-3-(1-(4-methoxybut-2-enoyl)pyrrolidin-2-yl)imidazo[1,5-a]pyrazin-1-yl)-N-(4-cyanopyridin-2-yl)benzamide], for which the concentration for a half-maximal effect (EC50) on Src enzyme was not below 1 µM; on Btk enzyme (His-Btk) it was 10 to 100 nM; at Lck enzyme (setting [3]), not below 1 µM; on FynT enzyme, not below 1 µM; at Lyn enzyme (setting [4]), not below 1000 nM. Further, at Btk enzyme (His-Btk) (setting [5]), the “EC50 Btk activity values” was less than 100 nM.

`CC#CC(=O)N1CCCC[C@H]1c1nc(-c2ccc(C(=O)Nc3ccccn3)cc2)c2c(N)nccn12` [Example 45, (S)-4-(8-amino-3-(1-but-2-ynoylpiperidin-2-yl)imidazo[1,5-a]pyrazin-1-yl)-N-(pyridin-2-yl)benzamide]: the EC50 is not below 1 µM on Src enzyme; less than 10 nM on Btk enzyme (His-Btk) (setting [1]); not below 1 µM at Lck enzyme (setting [3]); not below 1 µM on FynT enzyme; not below 1000 nM at Lyn enzyme (setting [4]).

In the case of `CCCc1ccnc(NC(=O)c2ccc(-c3nc([C@H](C)N(C)C(=O)/C=C/CN(C)C)n4ccnc(N)c34)cc2)c1` [Example 76, (S,E)-4-(8-amino-3-(1-(4-(dimethylamino)-N-methylbut-2-enamido)ethyl)imidazo[1,5-a]pyrazin-1-yl)-N-(4-propylpyridin-2-yl)benzamide], the concentration for a half-maximal effect (EC50) at Src enzyme was not below 1 µM; at Btk enzyme (His-Btk) (setting [1]), less than 10 nM; at Lck enzyme it was 0.1 to 1 µM; on FynT enzyme, not below 1 µM; at Lyn enzyme (setting [4]), not below 1000 nM. Further, the “EC50 Lck activity values” at Lck enzyme (setting [2]) is less than 1 µM.

For the compound `Cc1cc(C(=O)Nc2ccccn2)ccc1-c1nc([C@@H]2CCCCN2C(=O)c2ccnc(Cl)n2)n2ccnc(N)c12` [Example 56, 4-(8-amino-3-((S)-1-(2-chloropyrimidine-4-carbonyl)piperidin-2-yl)imidazo[1,5-a]pyrazin-1-yl)-3-methyl-N-(pyridin-2-yl)benzamide], the EC50 is not below 1 µM on Src enzyme; 10 to 100 nM at Btk enzyme (His-Btk); not below 1 µM at Lck enzyme (setting [3]); not below 1 µM at FynT enzyme; not below 1000 nM on Lyn enzyme (setting [4]). Also, the “EC50 Btk activity values” at Btk enzyme (His-Btk) (setting [5]) is given as less than 100 nM.

As for `CC#CC(=O)N1CCC[C@H]1c1nc(-c2ccc(C(=O)Nc3cc(C(C)C)ccn3)cc2)c2c(N)nccn12` [Example 102, (S)-4-(8-amino-3-(1-but-2-ynoylpyrrolidin-2-yl)imidazo[1,5-a]pyrazin-1-yl)-N-(4-isopropylpyridin-2-yl)benzamide], the half-maximal effective concentration (EC50) on Src enzyme is not below 1 µM; on Btk enzyme (His-Btk) (setting [1]) it was less than 10 nM; at Lck enzyme (setting [3]), not below 1 µM; on FynT enzyme, not below 1 µM; at Lyn enzyme (setting [4]), not below 1000 nM.

Turning to `CC#CC(=O)N1CCC[C@H]1c1nc(-c2ccc(C(=O)Nc3ccccn3)c(F)c2)c2c(N)nccn12` [Example 50, (S)-4-(8-amino-3-(1-but-2-ynoylpyrrolidin-2-yl)imidazo[1,5-a]pyrazin-1-yl)-2-fluoro-N-(pyridin-2-yl)benzamide], the EC50 on Src enzyme was not below 1 µM; at Btk enzyme (His-Btk) it was 10 to 100 nM; on Lck enzyme (setting [3]), not below 1 µM; at FynT enzyme, not below 1 µM; at Lyn enzyme (setting [4]), not below 1000 nM. Besides, the “EC50 Btk activity values” on Btk enzyme (His-Btk) (setting [5]) is reported as less than 100 nM.

The EC50 is the midpoint of the concentration-response curve.
